{"source": "patent US20130017570A1", "about": "“METHOD FOR MONITORING STATE OF DIFFERENTIATION IN STEM CELL” (OLYMPUS CORPORATION, priority 2010, published 2013)", "tested_on": "Nanog gene expression in mouse ES cells constitutively expressing Nanog-Eluc", "assay": "Luminescence imaging of Nanog-Eluc expression in ES cell colonies under FGF stimulus and FGF signal inhibitors", "assay_type": "cell-based", "details": "FGF 10 ng/ml, medium without LIF, before inhibitor addition", "from_the_text": "Mouse ES cells used in Example 1-2 were used, which is constitutively expressing Nanog-Eluc. The cells were differentiation-induced with FGF (Fibroblast Growth Factor), and then observed under condition with signal transduction inhibitor. FGF signal is a signal transduction which induces stem cell differentiation, and it has been reported that the stem cell returns from the differentiated state to the undifferentiated state by the action of an inhibitor (T. Kunath et al., Development 134, pp. 2895-2902, 2007). The preparation method of ES cells is in the same manner as in Example 1-2. […]\nD-luciferin (manufactured by Promega KK: final concentration of 500 μM) was added for luminescence observation, FGF (FGFβ human, PeproTech Inc.) was added so as to have a final concentration of 10 ng/ml, and then the mouse ES cells were observed using a luminescence microscope LV200 (manufactured by Olympus Corporation). As the luminescence observation conditions, the luminescence images of the mouse ES cells were taken under 55 min exposure at 1 hour intervals, thereby observing Nanog gene expression level. […]\nAfter the time-lapse observation, the captured images were saved, and numerical data was analyzed from the observation images using an image analysis software “AQUACOSMOS (manufactured by Hamamatsu Photonics K.K.)”, and the analyzed numerical data was shown as graph data. […]"}
{"substance": "FGF: Fibroblast Growth Factor (FGFβ human, PeproTech Inc.) used for differentiation induction", "values": [{"measurement": "Nanog expression (luminescence intensity) when adding FGF, expression pattern C colonies", "result": "not seen"}]}
